According to patent US6794396B2, “Substituted pyridines useful for inhibiting cholesteryl ester transfer protein activity” (Pharmacia Corporation, priority 1998, dated 2004):
Several values for one entry are separate records, joined by “and”; a condition that tells them apart may be missing. Equal entries are not always repeated.

Experiments:
CETP [1] = assay: Inhibition of CETP activity in vivo: [3H]CE transfer from HDL to VLDL and LDL after intravenous injection; design: species or system golden Syrian hamster; conditions: hamsters, injection into jugular vein; for % Inhibition of CETP activity: versus control animals
From the text: Inhibition of CETP by a test compound can be determined by administering the compound to an animal by intravenous injection, determining the rate of transfer of tritium-labeled cholesteryl ester (^3H]CE) from HDL to VLDL and LDL particles, and comparing the rate of transfer with the rate of transfer observed in control animals.
Male golden Syrian hamsters were maintained on a diet of chow containing 0.24% cholesterol for at least two weeks prior to the study. Immediately before the experiment, animals were anesthetized with pentobarbital. Anesthesia was maintained throughout the experiment. Indwelling catheters were inserted into the jugular vein and carotid artery. Test compound, Dimethyl 5,5′-dithiobis[2-difluoromethyl)-4-(2-methylpropyl)-6-(trifluoromethyl)-3-pyridinecarboxylate] (Compound 181), was dissolved as a 80 mM stock solution in vehicle (2% ethanol: 98% PEG 400, Sigma Chemical Company, St. Louis, Mo., USA). At the start of the experiment all animals received 0.2 ml of a solution containing [^3H]-CE-HDL into the jugular vein. [^3H[-CE-HDL is a preparation of human HDL containing tritium-labeled cholesteryl ester, and was prepared according to the method of Glenn et al. (“Quantification of Cholesteryl Ester Transfer Protein (CETP): A) CETP Activity and B) Immunochemical Assay of CETP Protein,” Meth. Enzymol., Glenn and Melton (Meth. Enzymol., 263, 339-351 (1996) which is incorporated herein by reference).
After 2 minutes, the animals received 0.1 ml of the test solution injected into the jugular vein. Control animals received 0.1 ml of the vehicle solution without test compound. After 5 minutes, the first blood samples (0.5 ml) were taken from the carotid artery and collected in standard microtainer tubes containing ethylenediamine tetraacetic acid. Saline (0.5 ml) was injected to flush the catheter and replace blood volume. Subsequent blood samples were taken at two hours and four hours by the same method. Blood samples were mixed well and kept on ice until the completion of the experiment.
Plasma was obtained by centrifugation of the blood samples at 4° C. The plasma (50 μl) was then treated with 5 μl of precipitating reagent (dextran sulfate, 10 g/l; 0.5M magnesium chloride to remove VLDL/LDL. After centrifugation, the resulting supernatant (25 μl) containing the HDL was analyzed for radioactivity using a liquid scintillation counter. The percentage [^3H] CE transferred from HDL to LDL and VLDL (% transfer) was calculated based on the total radioactivity in equivalent serum samples before precipitation. Typically, the amount of transfer from HDL to LDL and VLDL in control animals was 30 to 35% after four hours. The polyethylene glycol vehicle was determined to have no effect on CETP activity in this model.
(Compound 181), and five animals that received vehicle. At two hours, mean values of 13% [^3H]-Ce transfer from HDL to LDL and VLDL were obtained for the control animals, but only 4.7% transfer for the animals receiving Compound 181. […] Student t-tests were performed to determine if the means for control and animals treated with Compound 181 were statistically different.

CETP [2] = molecular target: T1, CETP (Homo sapiens, UniProt P11597); assay: CETP activity in vitro: transfer of [3H]CE from HDL donor to LDL acceptor particles; assay type: biochemical; conditions: Table 5, compounds of formula T-5; read-out: IC50
T1 construct: made in house; host or cells: CHO cells (serum-free conditioned medium)
T1 sequence (P11597 18-493): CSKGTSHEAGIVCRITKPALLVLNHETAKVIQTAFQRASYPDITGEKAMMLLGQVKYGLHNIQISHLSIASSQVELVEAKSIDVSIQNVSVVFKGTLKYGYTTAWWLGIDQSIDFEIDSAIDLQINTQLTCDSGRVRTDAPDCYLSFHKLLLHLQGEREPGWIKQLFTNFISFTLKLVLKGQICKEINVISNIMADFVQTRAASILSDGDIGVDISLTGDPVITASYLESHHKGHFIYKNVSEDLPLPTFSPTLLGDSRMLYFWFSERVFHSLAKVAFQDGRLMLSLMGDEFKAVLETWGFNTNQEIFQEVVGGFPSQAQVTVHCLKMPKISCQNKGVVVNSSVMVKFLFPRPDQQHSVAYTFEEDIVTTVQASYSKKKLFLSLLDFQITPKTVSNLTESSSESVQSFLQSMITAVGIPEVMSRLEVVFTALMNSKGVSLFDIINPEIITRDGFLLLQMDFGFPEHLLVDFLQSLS
How it was run: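 CETP from conditioned medium of CETP-transfected CHO cells incubated with [3H]CE-labelled HDL donor and LDL acceptor, pH 7.4 Tris buffer with NaCl, EDTA and 1% BSA, 2 h at 37 °C. LDL precipitated with dextran sulfate/MgCl2, filtered, and transferred radioactivity counted; IC50 reported.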

COC(=O)c1c(C(F)F)nc(C(F)(F)F)c(SSc2c(C(F)(F)F)nc(C(F)F)c(C(=O)OC)c2CC(C)C)c1CC(C)C [Compound 181, Dimethyl 5,5′-Dithiobis[2-(difluoromethyl)-4-(2-methylpropyl)-6-(trifluoromethyl)-3-pyridinecarboxylate]]
% Transfer of [3H]-CE from HDL to LDL and VLDL (CETP [1]; four hours): 10.6%
% Inhibition of CETP activity (CETP [1]; four hours): 50.8%
% Transfer of [3H]-CE from HDL to LDL and VLDL (CETP [1]; two hours): 4.7%
% Inhibition of CETP activity (CETP [1]; two hours): 64% and 63.6%
IC50 (CETP [2]): 1500 nM
